Reference: US20160324884A1, “TREATMENT OF DIABETES WITH PENTACYCLIC TRITERPENOID SAPONIN COMPOUNDS FROM SZECHUAN MELANDIUM ROOT” (priority 2013, published 2016)
“Also recorded” adds a separate entry of the source.

Assays:
KK^Ay mice [1] = assay: Effects of Wacao saponins on glycemia in KK^Ay T2DM mice (Example 2); format: in vivo
From the text: 80 male KK^Ay mice (12 weeks of age, License NO. SCXK (BJ) 2009-0015, Beijing Huafukang Biology Technology Co. Ltd.) and 10 male normal C57BL/6 mice (12 weeks of age, License NO. SCXK (BJ) 2009-0015, Beijing Huafukang Biology Technology Co. Ltd.) were adaptively bred for one week, and then used in the pharmacological experiment.
The animals were housed individually in wood-chip-bedded plastic cages. Germ-free and high-fat diets (Beijing Huafukang Biology Technology Co. Ltd.) were used to feed the KK^Ay mice, and the standard laboratory chows were used to feed normal C57BL/6 mice. All the animals had free access to food and water.
80 KK^Ay mice were adaptively bred for 1 week, and then randomly assigned into 8 groups: Model group, Compound (1) group, Compound (2) group, Compound (3) group, Compound (4) group, Compound (7) group, Compound (8) group and metformin group, 10 mice per group. 10 normal C57BL/6 mice were used as the control group. KK^Ay mice were fed with the high-fat diet, and the control group was fed with the normal control diet. The control and model groups were hypodermically injected with sterile water, 6 medicated groups were hypodermically injected with 6 kinds of Wacao saponins, the Compounds (1), (2), (3), (4), (7) and (8), and the positive group (metformin group) was irrigated per oral. All groups were administrated at 9 am for 2 weeks. The administrating volume is 10 ml/kg BW and the administration dosage is shown in Table3.
All mice of the fasting tail blood glucose level were measured weekly using One Touch ULTRA Glucometer (Life Scan Johnson and Johnson, USA).
Each compound of Wacao saponins was dissolved into sterile water and sterilized with filtration for Sc. The metformin was dissolved into sterile water for lg. The control and model group mice were injected with sterile water, Sc. All the animals were treated at 9 am for 2 weeks.
Overnight fasting tail blood glucose level was measured weekly using One Touch ULTRA Glucometer and measured for twice.
Each group was administrated for 2 weeks (14 days) and then the experiment was terminated.
Results are expressed as means±SD. Statistical analysis were analyzed by using SPSS 10.0 software. Data were evaluated with analysis of variance.

KK^Ay mice [2] = assay: Hepatic and muscle glycogen in KK^Ay mice (Example 3); format: in vivo; details: 2.0 mg/kg Sc
From the text: 60 KK^Ay mice were adaptively bred for 1 week, and then randomly assigned into 6 groups: Model group, Compound (1) group, Compound (2) group, Compound (3) group, Compound (4) group, and metformin group, 10 mice per group. 10 normal C57BL/6 mice were used for the control group. KK^Ay mice were in a high-fat diet, and the control normal mice were in a normal control diet. The control and model groups were hypodermically injected with sterile water, the 6 medicated groups mice were subcutaneously injected with […] Wacao saponins, (Compounds (1), (2), (3) and (4)) respectively, and the positive group was administered metformin by gavage. All mice were administrated at 9 am for 2 weeks and the administration volume is 10 ml/kg BW.
The body weight, food and water intake of each mouse was measured and recorded weekly throughout the course of the experiment. At the end of the experiment, collected the blood and separated serum, fasting blood glucose, insulin levels and insulin sensitivity index (ISI) were measured or calculated in each group. Liver, skeletal muscles of mice in each group were taken and weighed for detecting glycogen levels of the hepatic and muscles after mice being killed.
Compound (1), (2), (3) and (4) were respectively dissolved into sterile water, and sterilized with filtration for Sc. to the medication groups. The metformin was dissolved into sterile water for lg. to the positive control group. Control and model groups animals were injected with sterile water (10 ml/kg BW), Sc. All the animals were treated daily at 9 am for 2 weeks (14 days).
Blood detection: Blood glucose was measured weekly. Overnight fasting glycemia level was measured with One Touch ULTRA Glucometer for the tail blood test. At the end of the experiment, blood serum was collected for measuring levels of fasting blood glucose and insulin, and the insulin sensitivity index (ISI) was calculated. At the same time, hepatic tissues and skeletal muscles of mice were taken out to determine levels of hepatic and muscle glycogen by detection kits.

T2DM rats = assay: Glycosylated serum protein (GSP) and liver and muscle glycogen in T2DM rats (Example 5); format: in vivo, SD rats; details: 4.0 mg/kg Sc vs glucobay 20 mg/kg lg
From the text: 50 SD rats were adaptively bred for 1 week, and then randomly assigned into 5 groups: The control group, model group, Compound (1) group, Compound (2) group and glucobay group (the positive group), 10 rats per group. All the animals were in a standard laboratory diet. Control and model group animals were hypodermically injected with sterile water, test compound treatment groups were subcutaneously injected with the Compounds (1) and (2), and the positive group was administrated glucobay solution by gavage. All the animals were administrated at 9 am for 2 weeks, and the dose volume is 10 ml/kg BW.
The Compounds (1) and (2) were dissolved into sterile water, and sterilized with filtration, Sc. Glucobay was dissolved into sterile water, lg. Animals in the control and model groups were injected with sterile water (10 ml/kg BW), Sc. All the animals were treated at 9 am for 2 weeks (14 days).
All rats except the control group were administrated intragastrically with the high-fat emulsion (10 ml/kg) and weighed the body weight weekly. After weeks of administration, rats were intraperitoneally injected with streptozotocin (STZ, dissolved in citric acid-citrate sodium solution, pH 4.2, freshly prepared and used instantly, and store away from light) (30mg/kg). 4 days later, blood glucose level in rats was measured by tail blood test. […]

For `CC(=O)OC1C(OC(=O)/C=C/c2ccc(C)cc2)C(C)OC(OC(=O)[C@]23CCC(C)(C)C[C@H]2C2C=C[C@@H]4[C@@]5(C)CC[C@H](OC6OC(C(=O)O)C(O)C(OC7OCC(O)C(O)C7O)C6OC6OC(CO)C(O)C(O)C6O)[C@@](C)(C=O)[C@@H]5CC[C@@]4(C)[C@]2(C)C[C@H]3O)C1OC1OC(C)C(O)C(O)C1O` (some centres unmarked) [Compound (1), sinocrassuloside VI], which “glycemia (fasting tail blood glucose), hypoglycemic activity” value (KK^Ay mice [1]; 2.0 mg/kg BW Sc daily, after 1 week, vs model group) is on record?
Its value is “best hypoglycemic activity”.

And the “anti-hyperglycemia effect, compounds compared with each other” value (KK^Ay mice [1]; 2.0 mg/kg BW Sc, 2 weeks, ranking)?
The value was “strongest anti-hyperglycemia effect”.

What about the “enhancement of glycogen storage” value (KK^Ay mice [2]; 2 weeks, comparison among compounds and with metformin, 2 mg/kg) of the same molecule?
The value was “strongest activity of the function; also recorded: almost comparable to metformin”.

And the muscle glycogen level (KK^Ay mice [2]; after 2 weeks, vs model group)?
The muscle glycogen level was “stronger efficacy in raising levels muscle glycogen”.

What about the “effect on glycogen levels and GSP levels compared with glucobay” value (T2DM rats) of the same molecule?
The value was “better effect on up-regulating of glycogen levels and down-regulating of GSP levels; also recorded: superior to that of glucobay; also recorded: stronger than glucobay”.
